Source: ChEMBL document CHEMBL3525920, “CYP4F enzymes are responsible for the elimination of fingolimod (FTY720), a novel treatment of relapsing multiple sclerosis” (Drug Metab Dispos, 2011)

What was measured:
Liver microsome [1] = assay: Drug metabolism in human liver microsomes assessed as total metabolite formation at 1 to 50 uM after 20 mins by HPLC-RA analysis in presence of irreversible CYP3A inhibitor azamulin; assay type: ADME
[2] = Activity at CYP4F in human liver microsomes assessed as metabolite formation after 15 mins measured per mg protein by Eadie-Hofstee plot analysis; assay type: ADME; settings: 0.25 h
Liver microsome [3] = assay: Drug metabolism in human liver microsomes assessed as total metabolite formation at 1 uM after 20 mins by HPLC-RA analysis in presence of 10 uM CYP3A4 inhibitor ketoconazole; assay type: ADME
Liver microsome [4] = assay: Drug metabolism in human liver microsomes assessed as total metabolite formation at 1 to 50 uM after 20 mins by HPLC-RA analysis in presence of mechanism-based CYP1A2 inhibitor furafylline and NADPH; assay type: ADME
Cytochrome P450 2B6 = Cytochrome P450 2B6 (Homo sapiens, UniProt P20813); assay: Activity at CYP2B6 in human liver microsomes isolated from donors assessed as metabolite formation after 24 mins by HPLC-RA analysis; assay type: ADME; settings: 0.4 h
[5] = Activity at CYP4F in human liver microsomes assessed as metabolite formation after 15 mins by Eadie-Hofstee plot analysis; assay type: ADME; settings: 0.25 h
[6] = Retention time of the compound by C18 advantage armor column based LC-MS analysis; assay type: physicochemical

Chain of Cytochrome P450 2B6 (P20813 whole entry): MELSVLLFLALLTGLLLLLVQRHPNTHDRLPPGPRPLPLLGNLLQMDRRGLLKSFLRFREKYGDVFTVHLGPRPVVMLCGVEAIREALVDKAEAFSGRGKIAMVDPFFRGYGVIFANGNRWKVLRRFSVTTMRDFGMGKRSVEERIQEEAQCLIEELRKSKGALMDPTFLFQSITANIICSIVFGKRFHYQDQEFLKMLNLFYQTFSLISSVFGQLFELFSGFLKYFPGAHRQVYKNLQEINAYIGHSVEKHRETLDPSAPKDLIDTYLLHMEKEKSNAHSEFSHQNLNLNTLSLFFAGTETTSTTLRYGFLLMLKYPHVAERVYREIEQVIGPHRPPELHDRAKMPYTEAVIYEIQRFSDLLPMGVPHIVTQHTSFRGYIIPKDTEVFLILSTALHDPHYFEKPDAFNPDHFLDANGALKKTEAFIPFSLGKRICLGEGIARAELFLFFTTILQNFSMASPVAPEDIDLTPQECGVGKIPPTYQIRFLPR

Drug metabolism (Liver microsome [1]): metabolite_not_detected
Vmax [2]: 847 pmol/min
Drug metabolism (Liver microsome [3]): metabolite_not_detected
Drug metabolism (Liver microsome [4]): metabolite_detected
Drug metabolism (Cytochrome P450 2B6): metabolite_not_detected
Km [5]: 183 µM
Retention_time [6]: 42.7 min
Compound: CCCCCCCCc1ccc(CC[14C](N)(CO)CO)cc1.Cl
